The text below walks through data of patent publication US12691143B2, “Method for treating cancer” (priority 2020, dated 2026).

SMILES strings stand for the structures. Entries after “also recorded” stand apart in the source; their conditions may differ.

Holding throughout (assay type): cell-based
Experiment [1] concerns SW1710 bladder cancer cell line. Briefly: In vitro drug sensitivity assay / crystal violet staining. The following applies: SW1710 compared with other bladder cancer cell lines. How it is done:
(§1) Cells were seeded in either 96-well (5,000 cells/well) or 24-well (20,000 cells/well) plates. The following day, irofulven and cisplatin stock solutions were serially diluted in media and added to cells. After 48 to 72 hours, media was removed and CellTiter-Glo® reagent (Promega; Madison, WI) was added. Plates were scanned using a luminescence microplate reader (BioTek). Survival at each drug concentration was plotted as a percentage of survival in drug-free media with error bars representing the standard deviation of at least three experiments.
(§2) For crystal violet imaging experiments, cells were seeded in 6-well plates (100,000-200,000 cells/well) with 15 nM siRNA transfection mixture (as detailed above). At 24 hours, fresh media containing irofulven or PBS was added and the cells were incubated for an additional 72 hours. Cells were then fixed in formalin solution for 30 minutes and stained with crystal violet prepared in equal volumes of methanol and water. Excess crystal violet was removed by washing with PBS, and plates were then dried and imaged.

The subject of experiment [2] is KU19-19 bladder cancer cell line (NER-proficient). The experiment can be described thus: In vitro drug sensitivity assay (CellTiter-Glo). The following applies: NER-proficient KU19-19; 48 to 72 hours. How it is done:
as §1
In general terms: In ATP-based viability assays light output follows the ATP content of the culture.

In experiment [3] the test system is bladder cancer cell lines. Briefly: In vitro drug sensitivity assay / crystal violet staining, cell line panel. The following applies: most bladder cancer cell lines. How it is done:
as §1, §2

Experiment [4] deals with KE1 cells (NER-deficient). The experiment can be described thus: Immunoblotting after irofulven treatment. How it is done: Cells were lysed with ice-cold RIPA buffer supplemented with protease and phosphatase inhibitors (Roche). Samples were then sonicated and protein concentrations were determined using the Bradford assay. Sample buffer (Bio-Rad) was added and samples were then denatured at 90° C. for 10 mins. Samples were then loaded in NuPAGE™ protein gels (Thermo Fisher Scientific) and run at 90V for 2-3 hours. The gels were then transferred to nitrocellulose membranes at 30V overnight. Membranes were blocked for 30 mins in 5% milk in TBS buffer. Sections of the membrane corresponding to the appropriate molecular weights were stained overnight in primary antibodies prepared in 1% milk in TBST: XPF (1:700, clone D3G8C rabbit mAB, Cell Signaling); cleaved caspase 3 (1:1000, clone D175, rabbit mAB, Cell Signaling); total and cleaved PARP (1:1000, rabbit mAB, Cell Signaling); phospho-H2AX Ser139 (1:1000, clone JBW301 mouse mAB, Millipore); β-tubulin (1:1000, mouse mAB, Santa Cruz Technologies); Rpb1 CTD (1:1000, clone 4H8 Mouse mAb, Cell Signaling). A Licor Odyssey Infrared Imaging System was used for signal detection using IRDYE-conjugated secondary antibodies (LI-COR Biosciences).
Cells were lysed with ice-cold RIPA buffer supplemented with protease and phosphatase inhibitors (Roche). Samples were then sonicated and protein concentrations were determined using the Bradford assay. […]
(In western blotting, separated proteins are transferred to a membrane and probed.)

The next experiment relates to KU19-19 cells. The experiment can be described thus: Irofulven sensitivity after siRNA depletion of NER genes. The text has this:
Bladder cancer cell lines were purchased from ATCC. The KE1 bladder cancer cell line is a derivative of KU19-19 in which an ERCC2 T484 mutation has been introduced by CRISPR/Cas9 gene editing as previously described (6). The MDA-MB-468 breast cancer cell line and its ERCC4-complemented derivative have been previously described (35). Small interfering RNAs (siRNAs) targeting specific NER genes as well as a non-targeting siRNA (siNTC) were purchased from Integrated DNA Technologies Inc. (Coralville, IA, USA; see Table 9 for sequences). Cells were seeded in 6-well plates and grown to 50% confluency. A transfection mixture containing siRNA diluted to a final concentration of 30 nM in Opti-MEM media containing Lipofectamine 3000 (Life Technologies; Carlsbad, CA) was then added to cells. After 48 hours, cells were trypsinized and re-aliquoted to separate wells and transfected with 15 nM siRNA for 24 hours immediately prior to viability assays performed as described below. […]
Cells were seeded in either 96-well (5,000 cells/well) or 24-well (20,000 cells/well) plates. […] Plates were scanned using a luminescence microplate reader (BioTek). […]

As for `CC1=C(CO)C2=C(C)C3(CC3)[C@@](C)(O)C(=O)C2=C1` [irofulven], the figures for the irofulven sensitivity result in experiment [1] and in experiment [3] were “much higher sensitivity” and “resistant; also recorded: minimal sensitivity”, respectively. Moreover, in experiment [2], the “drug sensitivity (survival as percentage of drug-free media)” value is listed as “minimal sensitivity”. For the same compound, the “RNA polymerase level (immunoblot)” value in experiment [4] (following irofulven treatment, KE1) is “time-dependent loss”. The “phospho-H2AX (γH2AX), cleaved PARP and cleaved caspase-3 (immunoblot)” value in experiment [4] (irofulven-treated NER-deficient cells) is reported as “accumulation”. The entries for the “irofulven sensitivity after gene depletion” value in the experiment on KU19-19 cells (siRNA depletion of GG-NER gene DDB2) and in the experiment with KU19-19 cells (siRNA depletion of TC-NER gene ERCC6 or common NER gene ERCC3) were “minimal impact” and “significantly higher irofulven sensitivity; also recorded: sufficient to increase irofulven sensitivity”, respectively.
